Key:
Assay type in all cases: functional, cell-based, Cricetulus griseus
[1] = target: T1, Voltage-gated L-type calcium channel (Homo sapiens, UniProt Q13936+Q13698+Q01668+O60840); assay: (§1) Inhibition of Cav1.2 current measured using QPatch automatic path clamp system in CHO cells expressing Cav1.2, beta-2 and alpha-2/delta-1 subunits; design: ca sol conc 1.8 mM, temp Ambient
[2] = target: T1, Voltage-gated L-type calcium channel; assay: Inhibition of Cav1.2 current measured using PatchXpress automatic path clamp system in CHO cells expressing Cav1.2, beta-2 and alpha-2/delta-1 subunits; design: ca sol conc 1.8 mM, temp Ambient
[3] = target: T1, Voltage-gated L-type calcium channel; assay: as §1

| SMILES | IC50 [1] [µM] | also measured |
| --- | --- | --- |
| CO/N=C(\C(=O)N[C@@H]1C(=O)N2C(C(=O)O)=C(CSc3nc(=O)c(O)nn3C)CS[C@H]12)c1csc(N)n1 [CEFTRIAXONE] | 153.8 |  |
| O=C1CCc2cc(OCCCCc3nnnn3C3CCCCC3)ccc2N1 [CILOSTAZOL] | 91.2 |  |
| COc1cc(N)c(Cl)cc1C(=O)NC1CCN(CCCOc2ccc(F)cc2)CC1OC (stereo not given) [CISAPRIDE] | 11.8 |  |
| CC(C)N(CCC(C(N)=O)(c1ccccc1)c1ccccn1)C(C)C (stereo not given) [DISOPYRAMIDE] | 1036.7 |  |
| O=C(CCCN1CC=C(n2c(=O)[nH]c3ccccc32)CC1)c1ccc(F)cc1 [DROPERIDOL] | 7.6 |  |
| CCCCCCCN(CC)CCCC(O)c1ccc(NS(C)(=O)=O)cc1 (stereo not given) [IBUTILIDE] | 62.5 |  |
| CC(=O)NC[C@H]1CN(c2ccc(N3CCOCC3)c(F)c2)C(=O)O1 [LINEZOLID] | 105.4 |  |
| Cc1nc2n(c(=O)c1CCN1CCC(c3noc4cc(F)ccc34)CC1)CCCC2O (stereo not given) [PALIPERIDONE] | 193.9 |  |
| Fc1ccc([C@@H]2CCNC[C@H]2COc2ccc3c(c2)OCO3)cc1 [PAROXETINE] | 3.9 |  |
| CCCC(C)C1(CC)C(=O)NC(=O)NC1=O (stereo not given) [PENTOBARBITAL] |  | IC50 [2]: 299 µM |
| O=C1NC(=O)C(c2ccccc2)(c2ccccc2)N1 [PHENYTOIN] | 21.9 |  |
| CCN1CCN(C(=O)N[C@@H](C(=O)N[C@@H]2C(=O)N3[C@@H]2SC(C)(C)[C@@H]3C(=O)O)c2ccccc2)C(=O)C1=O [PIPERACILLIN] | 1226 |  |
| NC(=O)c1ncn([C@@H]2O[C@H](CO)[C@@H](O)[C@H]2O)n1 [RIBAVIRIN] | 622.5 |  |
| O=C1NCCN1CCN1CCC(c2cn(-c3ccc(F)cc3)c3ccc(Cl)cc23)CC1 [SERTINDOLE] | 6.3 |  |
| N[C@@H](CC(=O)N1CCn2c(nnc2C(F)(F)F)C1)Cc1cc(F)c(F)cc1F [SITAGLIPTIN] | 147.1 |  |
| C[C@@H]1CN(c2c(F)c(N)c3c(=O)c(C(=O)O)cn(C4CC4)c3c2F)C[C@H](C)N1 [SPARFLOXACIN] | 88.8 |  |
| CCN(CC)CCNC(=O)c1c(C)[nH]c(/C=C2\C(=O)Nc3ccc(F)cc32)c1C [SUNITINIB] | 33.4 |  |
| Cc1cn([C@@H]2C[C@@H](O)[C@H](CO)O2)c(=O)[nH]c1=O [TELBIVUDINE] | 713.9 |  |
| CC(CC(c1ccccc1)c1ccccc1)NC(C)(C)C (stereo not given) [TERODILINE] | 4.8 |  |
| C[C@@H](c1ncncc1F)[C@](O)(Cn1cncn1)c1ccc(F)cc1F [VORICONAZOLE] |  | IC50 [3]: 414.2 µM |
